How the values were obtained:
[1] = Antioxidant activity assessed as DPPH scavenging activity after 30 min by spectrophotometry; format: functional
RAW264.7 [2] = experiment: Anti-inflammatory activity in Mus musculus (mouse) RAW264.7 cells assessed as inhibition of IFN-gamma/LPS-induced nitric oxide production after 17 to 20 hr by Griess assay; format: functional, cell-based
RAW264.7 [3] = experiment: Cytotoxicity against Mus musculus (mouse) RAW264.7 cells at IC50 for NO production by MTT assay; format: cell-based
RAW264.7 [4] = experiment: Cytotoxicity against Mus musculus (mouse) RAW264.7 cells at >50 uM by MTT assay; format: cell-based
RAW264.7 [5] = experiment: Cytotoxicity against Mus musculus (mouse) RAW264.7 cells at 25 uM by MTT assay; format: cell-based; conditions: raw264.7, 25 µM

IC50 [1] [µM] | IC50 (RAW264.7 [2]) [µM] | Structure (SMILES) | Activity (RAW264.7 [3]) | Activity (RAW264.7 [4]) | Activity (RAW264.7 [5])
13.3 | 9.43 | O=C1/C(=C/c2ccc(O)c(O)c2)CCC/C1=C\c1ccc(O)c(O)c1 | – | – | –
≥ 100 | ≥ 50 | COc1cc(/C=C2\CC/C(=C\c3ccc(OC(C)=O)c(OC)c3)C2=O)ccc1OC(C)=O | – | – | –
≥ 100 | ≥ 50 | CC(=O)Oc1ccc(/C=C2\CC/C(=C\c3ccc(OC(C)=O)c(OC(C)=O)c3)C2=O)cc1OC(C)=O | – | – | –
≥ 100 | 13.3 | COc1cc(/C=C2\CCC/C(=C\c3ccc(OC(C)=O)c(OC)c3)C2=O)ccc1OC(C)=O | – | – | –
≥ 100 | 8.02 | CCC(=O)Oc1ccc(/C=C2\CCC/C(=C\c3ccc(OC(=O)CC)c(OC)c3)C2=O)cc1OC | – | – | –
≥ 100 | 6.84 | CC(=O)Oc1ccc(/C=C2\CCC/C(=C\c3ccc(OC(C)=O)c(OC(C)=O)c3)C2=O)cc1OC(C)=O | – | – | –
– | 12.2 | COc1cc(/C=C2\CCCC3C2=NNC3c2ccc(O)c(OC)c2)ccc1O (stereo not drawn) | Non-toxic | Toxic | –
– | 26.9 | Oc1ccc(/C=C2\CCCC3C2=NNC3c2ccc(O)cc2)cc1 (stereo not drawn) | – | – | –
– | 38.7 | COc1ccc(/C=C2\CCCC3C2=NNC3c2ccc(OC)c(OC)c2)cc1OC (stereo not drawn) | – | – | –
– | ≥ 50 | O=[N+]([O-])c1ccc(/C=C2\CCCC3C2=NNC3c2ccc([N+](=O)[O-])cc2)cc1 (stereo not drawn) | – | – | –
– | ≥ 50 | Fc1ccc(/C=C2\CCCC3C2=NNC3c2ccc(F)cc2)cc1 (stereo not drawn) | – | – | –
– | ≥ 50 | COc1cc(/C=C2\CCCC3C2=NN(C(C)=O)C3c2ccc(OC(C)=O)c(OC)c2)ccc1OC(C)=O (stereo not drawn) | – | – | –
– | ≥ 50 | COc1ccc(/C=C2\CCCC3C2=NN(C(C)=O)C3c2ccc(OC)c(OC)c2)cc1OC (stereo not drawn) | – | – | –
– | ≥ 50 | CC(=O)N1N=C2/C(=C/c3ccc([N+](=O)[O-])cc3)CCCC2C1c1ccc([N+](=O)[O-])cc1 (stereo not drawn) | – | – | –
– | ≥ 50 | CC(=O)N1N=C2/C(=C/c3ccc(F)cc3)CCCC2C1c1ccc(F)cc1 (stereo not drawn) | – | – | –
– | 47.1 | COc1cc(/C=C2\CCCC3C2=NN(C(=O)c2ccccc2)C3c2ccc(O)c(OC)c2)ccc1O (stereo not drawn) | – | – | –
– | 25.1 | COc1ccc(/C=C2\CCCC3C2=NN(C(=O)c2ccccc2)C3c2ccc(OC)c(OC)c2)cc1OC (stereo not drawn) | – | – | –

IC50 [1] [µM] | IC50 (RAW264.7 [2]) [µM] | Structure (SMILES) | Activity (RAW264.7 [3]) | Activity (RAW264.7 [4]) | Activity (RAW264.7 [5])
– | ≥ 50 | O=C(c1ccccc1)N1N=C2/C(=C/c3ccc([N+](=O)[O-])cc3)CCCC2C1c1ccc([N+](=O)[O-])cc1 (stereo not drawn) | – | – | –
– | ≥ 50 | O=C(c1ccccc1)N1N=C2/C(=C/c3ccc(F)cc3)CCCC2C1c1ccc(F)cc1 (stereo not drawn) | – | – | –
≥ 100 | ≥ 50 | O=C1/C(=C/c2cccc(O)c2)CC/C1=C\c1cccc(O)c1 | – | – | –
50.6 | ≥ 50 | O=C1/C(=C/c2ccc(O)cc2O)CC/C1=C\c1ccc(O)cc1O | – | – | –
20.7 | 7.94 | O=C1/C(=C/c2cccc(O)c2O)CC/C1=C\c1cccc(O)c1O | – | – | –
≥ 100 | 6.09 | O=C1/C(=C/c2cccc(O)c2)CCC/C1=C\c1cccc(O)c1 | Non-toxic | Toxic | Toxic
75 | 13.9 | COc1cc(/C=C2\CC/C(=C\c3ccc(O)c(OC)c3)C2=O)ccc1O | Non-toxic | Toxic | –
14.8 | 20.5 | O=C1/C(=C/c2ccc(O)c(O)c2)CC/C1=C\c1ccc(O)c(O)c1 | – | – | –
≥ 100 | ≥ 50 | O=C1/C(=C/c2ccc(O)cc2)CC/C1=C\c1ccc(O)cc1 | – | – | –
≥ 100 | 19.8 | COc1ccc(/C=C2\CCC/C(=C\c3ccc(OC)c(OC)c3)C2=O)cc1OC | – | – | –
≥ 100 | 29.4 | O=C1/C(=C/c2ccc([N+](=O)[O-])cc2)CCC/C1=C\c1ccc([N+](=O)[O-])cc1 | – | – | –
≥ 100 | ≥ 50 | O=C1/C(=C/c2ccc(F)cc2)CC/C1=C\c1ccc(F)cc1 | – | – | –
≥ 100 | ≥ 50 | O=C1/C(=C/c2ccc(F)cc2)CCC/C1=C\c1ccc(F)cc1 | – | – | –
≥ 100 | 41.6 | O=C1/C(=C/c2ccc(O)cc2)CCC/C1=C\c1ccc(O)cc1 | – | – | –
– | 21.6 | COc1cc(/C=C/C(=O)CC(=O)/C=C/c2ccc(O)c(OC)c2)ccc1O [CURCUMIN] | – | – | –
51.9 | 6.68 | COc1cc(/C=C2\CCC/C(=C\c3ccc(O)c(OC)c3)C2=O)ccc1O [CYCLOVALONE] | Non-toxic | Toxic | –

Structure (SMILES) | IC50 [1] [µM] | IC50 (RAW264.7 [2]) [µM] | Activity (RAW264.7 [3]) | Activity (RAW264.7 [4]) | Activity (RAW264.7 [5])
COC(=O)[C@@H](N)CCCNC(=N)N[N+](=O)[O-] [L-NAME] | – | 26.2 | – | – | –
O=c1c(O)c(-c2ccc(O)c(O)c2)oc2cc(O)cc(O)c12 [QUERCETIN] | 21.5 | – | – | – | –

Reference: ChEMBL document CHEMBL3046653, “Synthesis and evaluation of DPPH and anti-inflammatory activities of 2,6-bisbenzylidenecyclohexanone and pyrazoline derivatives” (Med Chem Res, 2012)
